Results taken from patent US4015974A, “Amido phosphorothiolates” (priority 1972, dated 1977).

Legend:
Assay type in all cases: in vivo
[1] = system: barnyard grass (Echinochloa crus-galli); experiment: Pre-emergence application, herbicidal effect on barnyard grass (Table 1); parameters: key: 0: not damaged; 5: completely killed; conditions: 20 days after application, score 0-5
Outline: (§1)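 Compounds, formulated as water-diluted wettable powder, were applied to the soil surface after sowing and covering the seeds in pots of about 10 cm. Effects were rated on a 0 (no damage) to 5 (complete kill) scale after 20 days of greenhouse growth.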

[2] = system: large crabgrass (Digitaria sanguinalis); experiment: Pre-emergence application, herbicidal effect on large crabgrass (Table 1); parameters: key: 0: not damaged; 5: completely killed; conditions: 20 days after application, score 0-5
Outline: as §1

radish = experiment: Pre-emergence application, herbicidal effect on radish (Table 1); parameters: key: 0: not damaged; 5: completely killed; conditions: 20 days after application, score 0-5
Outline: as §1

[3] = system: redroot pigweed (Amaranthus retroflexus); experiment: Pre-emergence application, herbicidal effect on redroot pigweed (Table 1); parameters: key: 0: not damaged; 5: completely killed; conditions: 20 days after application, score 0-5
Outline: as §1

[4] = system: common purslane (Portulaca oleracea); experiment: Pre-emergence application, herbicidal effect on common purslane (Table 1); parameters: key: 0: not damaged; 5: completely killed; conditions: 20 days after application, score 0-5
Outline: as §1

[5] = system: common lambsquarter (Chenopodium album); experiment: Pre-emergence application, herbicidal effect on common lambsquarter (Table 1); parameters: key: 0: not damaged; 5: completely killed; conditions: 20 days after application, score 0-5
Outline: as §1

rice = experiment: Water application, phytotoxicity on rice (Table 2); parameters: key: 0: no effect; 1: very slightly affected; 2: slightly affected; 3: moderately affected; 4: considerably affected; 5: completely killed; conditions: 25 days, score 0-5
Outline: (§2)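 Ratings on a 0–5 scale taken 25 days post-treatment for rice injury, barnyard grass, and naturally emerging monochoria, false pimpernel and toothcup. Compounds as wettable powder went onto waterlogged paddy soil holding rice seedlings transplanted at 3 leaves and barnyard grass seed.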

[6] = system: barnyard grass (Echinochloa crus-galli); experiment: Water application, herbicidal effect on barnyard grass (Table 2); parameters: key: 0: not damaged; 5: completely killed; conditions: 25 days, score 0-5
Outline: as §2

[7] = system: broad-leaved weeds, e.g., monochoria, false pimpernel and toothcup; experiment: Water application, herbicidal effect on broad-leaved weeds (Table 2); parameters: key: 0: not damaged; 5: completely killed; conditions: 25 days, score 0-5
Outline: as §2

## CCCCOP(=O)(SCC(=O)N1CCCCC1CC)SC(C)C (stereo not drawn) [Compound 94]
[1]; 10 g./a.
  Herbicidal effect, barnyard grass: 5
[1]; 20 g./a.
  Herbicidal effect, barnyard grass: 5
[1]; 40 g./a.
  Herbicidal effect, barnyard grass: 5
[2]; 10 g./a.
  Herbicidal effect, large crabgrass: 5
[2]; 20 g./a.
  Herbicidal effect, large crabgrass: 5
[2]; 40 g./a.
  Herbicidal effect, large crabgrass: 5
radish; 10 g./a.
  Herbicidal effect, radish: 0
radish; 20 g./a.
  Herbicidal effect, radish: 0
radish; 40 g./a.
  Herbicidal effect, radish: 0
[3]; 10 g./a.
  Herbicidal effect, redroot pigweed: 3
[3]; 20 g./a.
  Herbicidal effect, redroot pigweed: 4
[3]; 40 g./a.
  Herbicidal effect, redroot pigweed: 5
[4]; 10 g./a.
  Herbicidal effect, common purslane: 3
[4]; 20 g./a.
  Herbicidal effect, common purslane: 4
[4]; 40 g./a.
  Herbicidal effect, common purslane: 5
[5]; 10 g./a.
  Herbicidal effect, common lambsquarter: 4
[5]; 20 g./a.
  Herbicidal effect, common lambsquarter: 4
[5]; 40 g./a.
  Herbicidal effect, common lambsquarter: 5
rice; 10 g/a
  Phytotoxicity on rice: 0
rice; 20 g/a
  Phytotoxicity on rice: 0
rice; 40 g/a
  Phytotoxicity on rice: 0
[6]; 10 g/a
  Herbicidal effects, barnyard grass: 5
[6]; 20 g/a
  Herbicidal effects, barnyard grass: 5
[6]; 40 g/a
  Herbicidal effects, barnyard grass: 5
[7]; 10 g/a
  Herbicidal effects, broad-leaved weeds: 5
[7]; 20 g/a
  Herbicidal effects, broad-leaved weeds: 5
[7]; 40 g/a
  Herbicidal effects, broad-leaved weeds: 5

## CCCCOP(=O)(SCCCC)SCC(=O)N1CCCCC1CC (stereo not drawn) [Compound 95]
[1]; 10 g./a.
  Herbicidal effect, barnyard grass: 4
[1]; 20 g./a.
  Herbicidal effect, barnyard grass: 5
[1]; 40 g./a.
  Herbicidal effect, barnyard grass: 5
[2]; 10 g./a.
  Herbicidal effect, large crabgrass: 4
[2]; 20 g./a.
  Herbicidal effect, large crabgrass: 5
[2]; 40 g./a.
  Herbicidal effect, large crabgrass: 5
radish; 10 g./a.
  Herbicidal effect, radish: 0
radish; 20 g./a.
  Herbicidal effect, radish: 0
radish; 40 g./a.
  Herbicidal effect, radish: 0
[3]; 10 g./a.
  Herbicidal effect, redroot pigweed: 2
[3]; 20 g./a.
  Herbicidal effect, redroot pigweed: 3
[3]; 40 g./a.
  Herbicidal effect, redroot pigweed: 3
[4]; 10 g./a.
  Herbicidal effect, common purslane: 2
[4]; 20 g./a.
  Herbicidal effect, common purslane: 3
[4]; 40 g./a.
  Herbicidal effect, common purslane: 3
[5]; 10 g./a.
  Herbicidal effect, common lambsquarter: 2
[5]; 20 g./a.
  Herbicidal effect, common lambsquarter: 3
[5]; 40 g./a.
  Herbicidal effect, common lambsquarter: 4
rice; 10 g/a
  Phytotoxicity on rice: 0
rice; 20 g/a
  Phytotoxicity on rice: 0
rice; 40 g/a
  Phytotoxicity on rice: 0
[6]; 10 g/a
  Herbicidal effects, barnyard grass: 5
[6]; 20 g/a
  Herbicidal effects, barnyard grass: 5
[6]; 40 g/a
  Herbicidal effects, barnyard grass: 5
[7]; 10 g/a
  Herbicidal effects, broad-leaved weeds: 5
[7]; 20 g/a
  Herbicidal effects, broad-leaved weeds: 5
[7]; 40 g/a
  Herbicidal effects, broad-leaved weeds: 5

## CCCCOP(=O)(SCC(=O)N1CCCCC1CC)SC(C)CC (stereo not drawn) [Compound 96]
[1]; 10 g./a.
  Herbicidal effect, barnyard grass: 4
[1]; 20 g./a.
  Herbicidal effect, barnyard grass: 5
[1]; 40 g./a.
  Herbicidal effect, barnyard grass: 5
[2]; 10 g./a.
  Herbicidal effect, large crabgrass: 5
[2]; 20 g./a.
  Herbicidal effect, large crabgrass: 5
[2]; 40 g./a.
  Herbicidal effect, large crabgrass: 5
radish; 10 g./a.
  Herbicidal effect, radish: 0
radish; 20 g./a.
  Herbicidal effect, radish: 0
radish; 40 g./a.
  Herbicidal effect, radish: 0
[3]; 10 g./a.
  Herbicidal effect, redroot pigweed: 3
[3]; 20 g./a.
  Herbicidal effect, redroot pigweed: 4
[3]; 40 g./a.
  Herbicidal effect, redroot pigweed: 5
[4]; 10 g./a.
  Herbicidal effect, common purslane: 3
[4]; 20 g./a.
  Herbicidal effect, common purslane: 4
[4]; 40 g./a.
  Herbicidal effect, common purslane: 5
[5]; 10 g./a.
  Herbicidal effect, common lambsquarter: 3
[5]; 20 g./a.
  Herbicidal effect, common lambsquarter: 4
[5]; 40 g./a.
  Herbicidal effect, common lambsquarter: 5
rice; 10 g/a
  Phytotoxicity on rice: 0
rice; 20 g/a
  Phytotoxicity on rice: 0
rice; 40 g/a
  Phytotoxicity on rice: 0
[6]; 10 g/a
  Herbicidal effects, barnyard grass: 5
[6]; 20 g/a
  Herbicidal effects, barnyard grass: 5
[6]; 40 g/a
  Herbicidal effects, barnyard grass: 5
[7]; 10 g/a
  Herbicidal effects, broad-leaved weeds: 5
[7]; 20 g/a
  Herbicidal effects, broad-leaved weeds: 5
[7]; 40 g/a
  Herbicidal effects, broad-leaved weeds: 5

## CCCCOP(=O)(SCC(=O)N1CCCCC1CC)SCC(C)C (stereo not drawn) [Compound 97]
[1]; 10 g./a.
  Herbicidal effect, barnyard grass: 4
[1]; 20 g./a.
  Herbicidal effect, barnyard grass: 5
[1]; 40 g./a.
  Herbicidal effect, barnyard grass: 5
[2]; 10 g./a.
  Herbicidal effect, large crabgrass: 4
[2]; 20 g./a.
  Herbicidal effect, large crabgrass: 5
[2]; 40 g./a.
  Herbicidal effect, large crabgrass: 5
radish; 10 g./a.
  Herbicidal effect, radish: 0
radish; 20 g./a.
  Herbicidal effect, radish: 0
radish; 40 g./a.
  Herbicidal effect, radish: 0
[3]; 10 g./a.
  Herbicidal effect, redroot pigweed: 3
[3]; 20 g./a.
  Herbicidal effect, redroot pigweed: 4
[3]; 40 g./a.
  Herbicidal effect, redroot pigweed: 5
[4]; 10 g./a.
  Herbicidal effect, common purslane: 4
[4]; 20 g./a.
  Herbicidal effect, common purslane: 4
[4]; 40 g./a.
  Herbicidal effect, common purslane: 5
[5]; 10 g./a.
  Herbicidal effect, common lambsquarter: 3
[5]; 20 g./a.
  Herbicidal effect, common lambsquarter: 4
[5]; 40 g./a.
  Herbicidal effect, common lambsquarter: 5
rice; 10 g/a
  Phytotoxicity on rice: 0
rice; 20 g/a
  Phytotoxicity on rice: 0
rice; 40 g/a
  Phytotoxicity on rice: 0
[6]; 10 g/a
  Herbicidal effects, barnyard grass: 5
[6]; 20 g/a
  Herbicidal effects, barnyard grass: 5
[6]; 40 g/a
  Herbicidal effects, barnyard grass: 5
[7]; 10 g/a
  Herbicidal effects, broad-leaved weeds: 5
[7]; 20 g/a
  Herbicidal effects, broad-leaved weeds: 5
[7]; 40 g/a
  Herbicidal effects, broad-leaved weeds: 5

## CCCCCSP(=O)(OCCCC)SCC(=O)N1CCCCC1CC (stereo not drawn) [Compound 98]
[1]; 10 g./a.
  Herbicidal effect, barnyard grass: 5
[1]; 20 g./a.
  Herbicidal effect, barnyard grass: 5
[1]; 40 g./a.
  Herbicidal effect, barnyard grass: 5
[2]; 10 g./a.
  Herbicidal effect, large crabgrass: 5
[2]; 20 g./a.
  Herbicidal effect, large crabgrass: 5
[2]; 40 g./a.
  Herbicidal effect, large crabgrass: 5
radish; 10 g./a.
  Herbicidal effect, radish: 0
radish; 20 g./a.
  Herbicidal effect, radish: 0
radish; 40 g./a.
  Herbicidal effect, radish: 0
[3]; 10 g./a.
  Herbicidal effect, redroot pigweed: 4
[3]; 20 g./a.
  Herbicidal effect, redroot pigweed: 5
[3]; 40 g./a.
  Herbicidal effect, redroot pigweed: 5
[4]; 10 g./a.
  Herbicidal effect, common purslane: 4
[4]; 20 g./a.
  Herbicidal effect, common purslane: 5
[4]; 40 g./a.
  Herbicidal effect, common purslane: 5
[5]; 10 g./a.
  Herbicidal effect, common lambsquarter: 5
[5]; 20 g./a.
  Herbicidal effect, common lambsquarter: 5
[5]; 40 g./a.
  Herbicidal effect, common lambsquarter: 5
rice; 10 g/a
  Phytotoxicity on rice: 0
rice; 20 g/a
  Phytotoxicity on rice: 0
rice; 40 g/a
  Phytotoxicity on rice: 0
[6]; 10 g/a
  Herbicidal effects, barnyard grass: 5
[6]; 20 g/a
  Herbicidal effects, barnyard grass: 5
[6]; 40 g/a
  Herbicidal effects, barnyard grass: 5
[7]; 10 g/a
  Herbicidal effects, broad-leaved weeds: 5
[7]; 20 g/a
  Herbicidal effects, broad-leaved weeds: 5
[7]; 40 g/a
  Herbicidal effects, broad-leaved weeds: 5

## CCCCOP(=O)(SCCC(C)C)SCC(=O)N1CCCCC1CC (stereo not drawn) [Compound 99]
[1]; 10 g./a.
  Herbicidal effect, barnyard grass: 4
[1]; 20 g./a.
  Herbicidal effect, barnyard grass: 5
[1]; 40 g./a.
  Herbicidal effect, barnyard grass: 5
[2]; 10 g./a.
  Herbicidal effect, large crabgrass: 5
[2]; 20 g./a.
  Herbicidal effect, large crabgrass: 5
[2]; 40 g./a.
  Herbicidal effect, large crabgrass: 5
radish; 10 g./a.
  Herbicidal effect, radish: 0
radish; 20 g./a.
  Herbicidal effect, radish: 0
radish; 40 g./a.
  Herbicidal effect, radish: 0
[3]; 10 g./a.
  Herbicidal effect, redroot pigweed: 4
[3]; 20 g./a.
  Herbicidal effect, redroot pigweed: 5
[3]; 40 g./a.
  Herbicidal effect, redroot pigweed: 5
[4]; 10 g./a.
  Herbicidal effect, common purslane: 5
[4]; 20 g./a.
  Herbicidal effect, common purslane: 5
[4]; 40 g./a.
  Herbicidal effect, common purslane: 5
[5]; 10 g./a.
  Herbicidal effect, common lambsquarter: 5
[5]; 20 g./a.
  Herbicidal effect, common lambsquarter: 5
[5]; 40 g./a.
  Herbicidal effect, common lambsquarter: 5
rice; 10 g/a
  Phytotoxicity on rice: 0
rice; 20 g/a
  Phytotoxicity on rice: 0
rice; 40 g/a
  Phytotoxicity on rice: 0
[6]; 10 g/a
  Herbicidal effects, barnyard grass: 5
[6]; 20 g/a
  Herbicidal effects, barnyard grass: 5
[6]; 40 g/a
  Herbicidal effects, barnyard grass: 5
[7]; 10 g/a
  Herbicidal effects, broad-leaved weeds: 5
[7]; 20 g/a
  Herbicidal effects, broad-leaved weeds: 5
[7]; 40 g/a
  Herbicidal effects, broad-leaved weeds: 5
